# Patent publication US10710978B2, “STK4 inhibitors for treatment of hematologic malignancies” (Dana-Farber Cancer Institute, Inc., priority 2015, dated 2020)
# Where two headings read alike, the source gives them in different places.
# Tests used:
# STK24 (MST3) = STK24 (MST3) (Homo sapiens (Human), UniProt Q9Y6E0); test: Z-lyte biochemical IC50 assay (Invitrogen); conditions: ATP concentration matched the Km
# In short: (§1)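 FRET-based Z-lyte kinase assays run at Invitrogen, ATP at each kinase's Km; for STK4, 6.25-160 ng enzyme with 2 μM Ser/Thr 07 peptide in HEPES pH 7.5, MgCl2, EGTA, Brij-35, 1 h reaction then development reagent. 10-point 3-fold titration from 10 μM.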
# STK4 (MST1) = STK4 (MST1) (Homo sapiens (Human), UniProt Q13043); test: Z-lyte biochemical IC50 assay (Invitrogen); conditions: ATP concentration matched the Km
# In short: as §1
# MST3 = MST3 (Homo sapiens (Human), UniProt Q9Y6E0); test: KiNativ assay; format: binding; conditions: H929 live cell
# Procedure: (§2) Biochemical IC50s of the compounds of the present disclosure against various kinases were measured in a KiNativ assay. Compounds were screened in duplicate at 10 μM in H929 live cell. IC50 was measured via Mass spectroscopy (MS).
# p38d, p38g = test: KiNativ assay; format: binding; conditions: H929 live cell
# Procedure: as §2
# RSK2 domain1 = RSK2 domain1 (Homo sapiens (Human), UniProt P51812); test: KiNativ assay; format: binding; conditions: H929 live cell
# Procedure: as §2
# CK1g3 = CK1g3 (Homo sapiens (Human), UniProt Q9Y6M4); test: KiNativ assay; format: binding; conditions: H929 live cell
# Procedure: as §2
# p70S6K = p70S6K (Homo sapiens (Human), UniProt P23443); test: KiNativ assay; format: binding; conditions: H929 live cell
# Procedure: as §2
# NEK9 = NEK9 (Homo sapiens (Human), UniProt Q8TD19); test: KiNativ assay; format: binding; conditions: H929 live cell
# Procedure: as §2
# SLK = SLK (Homo sapiens (Human), UniProt Q9H2G2); test: KiNativ assay; format: binding; conditions: H929 live cell
# Procedure: as §2
# MARK2 = MARK2 (Homo sapiens (Human), UniProt Q7KZI7); test: KiNativ assay; format: binding; conditions: H929 live cell
# Procedure: as §2
# MST4, YSK1 = test: KiNativ assay; format: binding; conditions: H929 live cell
# Procedure: as §2
# DGKH = DGKH (Homo sapiens (Human), UniProt Q86XP1); test: KiNativ assay; format: binding; conditions: H929 live cell
# Procedure: as §2
# MAP3K5 = MAP3K5 (Homo sapiens (Human), UniProt Q99683); test: KiNativ assay; format: binding; conditions: H929 live cell
# Procedure: as §2
# MST2 = MST2 (Homo sapiens (Human), UniProt Q13188); test: KiNativ assay; format: binding; conditions: H929 live cell
# Procedure: as §2
# MSK2 domain1 = MSK2 domain1 (Homo sapiens (Human), UniProt O75676); test: KiNativ assay; format: binding; conditions: H929 live cell
# Procedure: as §2
# SNRK = SNRK (Homo sapiens (Human), UniProt Q9NRH2); test: KiNativ assay; format: binding; conditions: H929 live cell
# Procedure: as §2
# Erk1 = Erk1 (Homo sapiens (Human), UniProt P27361); test: KiNativ assay; format: binding; conditions: H929 live cell
# Procedure: as §2
# RSK1 domain2 = RSK1 domain2 (Homo sapiens (Human), UniProt Q15418); test: KiNativ assay; format: binding; conditions: H929 live cell
# Procedure: as §2
# MAP3K4 = MAP3K4 (Homo sapiens (Human), UniProt Q9Y6R4); test: KiNativ assay; format: binding; conditions: H929 live cell
# Procedure: as §2
# p70S6Kb = p70S6Kb (Homo sapiens (Human), UniProt Q9UBS0); test: KiNativ assay; format: binding; conditions: H929 live cell
# Procedure: as §2
# BARK1 = BARK1 (Homo sapiens (Human), UniProt P25098); test: KiNativ assay; format: binding; conditions: H929 live cell
# Procedure: as §2
# LATS1 = LATS1 (Homo sapiens (Human), UniProt O95835); test: KiNativ assay; format: binding; conditions: H929 live cell
# Procedure: as §2
# FER = FER (Homo sapiens (Human), UniProt P16591); test: KiNativ assay; format: binding; conditions: H929 live cell
# Procedure: as §2
# [1] = test system: CaMK2a, CaMK2b, CaMK2d, CaMK2g; test: KiNativ assay; format: binding; conditions: H929 live cell
# Procedure: as §2
# STLK6 = STLK6 (Homo sapiens (Human), UniProt Q9C0K7); test: KiNativ assay; format: binding; conditions: H929 live cell
# Procedure: as §2
# TAO1, TAO3 = test: KiNativ assay; format: binding; conditions: H929 live cell
# Procedure: as §2
# CLK2 = CLK2 (Homo sapiens (Human), UniProt P49760); test: KiNativ assay; format: binding; conditions: H929 live cell
# Procedure: as §2
# MSK1 domain1 = MSK1 domain1 (Homo sapiens (Human), UniProt O75582); test: KiNativ assay; format: binding; conditions: H929 live cell
# Procedure: as §2
# Wnk1, Wnk2, Wnk3 = test: KiNativ assay; format: binding; conditions: H929 live cell
# Procedure: as §2
# [2] = range class, read-out: % inhibition
# MSK1 domain1, sequence (O75582 whole entry, the tested form may be a part): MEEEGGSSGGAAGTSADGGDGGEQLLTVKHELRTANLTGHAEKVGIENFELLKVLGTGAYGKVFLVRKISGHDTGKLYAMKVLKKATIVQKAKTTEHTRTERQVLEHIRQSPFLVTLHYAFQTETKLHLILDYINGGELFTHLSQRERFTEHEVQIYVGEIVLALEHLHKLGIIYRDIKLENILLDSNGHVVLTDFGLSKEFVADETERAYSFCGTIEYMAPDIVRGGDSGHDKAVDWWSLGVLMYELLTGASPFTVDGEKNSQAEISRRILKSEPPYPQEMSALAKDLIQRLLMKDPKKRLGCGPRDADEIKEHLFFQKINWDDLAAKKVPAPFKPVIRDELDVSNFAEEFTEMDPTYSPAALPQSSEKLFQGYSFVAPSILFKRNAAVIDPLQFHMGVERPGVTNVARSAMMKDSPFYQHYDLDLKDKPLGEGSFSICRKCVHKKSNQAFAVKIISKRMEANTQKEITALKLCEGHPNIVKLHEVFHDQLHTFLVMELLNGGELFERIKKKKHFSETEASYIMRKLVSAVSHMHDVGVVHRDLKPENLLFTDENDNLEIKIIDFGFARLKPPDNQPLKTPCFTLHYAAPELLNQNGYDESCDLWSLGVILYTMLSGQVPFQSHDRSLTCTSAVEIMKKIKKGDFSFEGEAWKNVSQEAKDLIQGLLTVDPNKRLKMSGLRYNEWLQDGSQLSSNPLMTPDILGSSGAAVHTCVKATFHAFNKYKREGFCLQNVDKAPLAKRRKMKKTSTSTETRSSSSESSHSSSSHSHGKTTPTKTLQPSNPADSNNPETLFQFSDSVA
# NEK9, sequence (Q8TD19 whole entry): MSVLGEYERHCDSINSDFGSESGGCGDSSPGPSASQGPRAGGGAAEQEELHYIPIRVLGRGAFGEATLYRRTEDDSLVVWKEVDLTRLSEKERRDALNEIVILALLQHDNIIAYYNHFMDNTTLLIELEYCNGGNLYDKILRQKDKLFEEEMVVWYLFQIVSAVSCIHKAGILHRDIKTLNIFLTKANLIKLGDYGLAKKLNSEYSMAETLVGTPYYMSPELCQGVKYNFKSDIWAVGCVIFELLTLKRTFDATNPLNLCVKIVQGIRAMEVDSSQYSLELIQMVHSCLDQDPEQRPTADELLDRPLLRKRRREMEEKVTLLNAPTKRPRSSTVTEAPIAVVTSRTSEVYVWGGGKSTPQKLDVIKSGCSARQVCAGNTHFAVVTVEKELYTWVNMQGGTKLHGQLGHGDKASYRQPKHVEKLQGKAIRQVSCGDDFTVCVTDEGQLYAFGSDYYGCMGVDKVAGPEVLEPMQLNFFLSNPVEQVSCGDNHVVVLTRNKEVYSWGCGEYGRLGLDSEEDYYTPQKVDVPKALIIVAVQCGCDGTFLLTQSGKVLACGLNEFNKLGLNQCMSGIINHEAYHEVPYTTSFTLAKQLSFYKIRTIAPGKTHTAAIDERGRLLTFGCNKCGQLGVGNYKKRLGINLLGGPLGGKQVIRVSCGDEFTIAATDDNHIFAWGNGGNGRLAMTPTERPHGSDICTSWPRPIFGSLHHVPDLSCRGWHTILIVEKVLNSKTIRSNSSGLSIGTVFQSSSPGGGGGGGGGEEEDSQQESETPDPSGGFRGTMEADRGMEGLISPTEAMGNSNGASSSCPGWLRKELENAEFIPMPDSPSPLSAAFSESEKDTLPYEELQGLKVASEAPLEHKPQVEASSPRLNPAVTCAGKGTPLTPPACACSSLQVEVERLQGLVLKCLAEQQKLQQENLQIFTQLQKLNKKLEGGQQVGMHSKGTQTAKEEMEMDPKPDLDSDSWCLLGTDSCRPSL
# Erk1, sequence (P27361 whole entry): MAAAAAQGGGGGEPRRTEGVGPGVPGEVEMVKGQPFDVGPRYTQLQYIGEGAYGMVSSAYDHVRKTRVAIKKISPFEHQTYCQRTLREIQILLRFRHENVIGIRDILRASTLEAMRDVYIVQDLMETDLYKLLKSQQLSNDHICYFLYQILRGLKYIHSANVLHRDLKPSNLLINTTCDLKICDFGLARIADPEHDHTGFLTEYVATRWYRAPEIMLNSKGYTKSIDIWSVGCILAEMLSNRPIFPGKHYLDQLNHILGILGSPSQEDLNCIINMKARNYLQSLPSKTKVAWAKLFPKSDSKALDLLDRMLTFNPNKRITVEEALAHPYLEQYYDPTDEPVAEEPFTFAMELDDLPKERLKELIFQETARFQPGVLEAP
# MAP3K5, sequence (Q99683 whole entry): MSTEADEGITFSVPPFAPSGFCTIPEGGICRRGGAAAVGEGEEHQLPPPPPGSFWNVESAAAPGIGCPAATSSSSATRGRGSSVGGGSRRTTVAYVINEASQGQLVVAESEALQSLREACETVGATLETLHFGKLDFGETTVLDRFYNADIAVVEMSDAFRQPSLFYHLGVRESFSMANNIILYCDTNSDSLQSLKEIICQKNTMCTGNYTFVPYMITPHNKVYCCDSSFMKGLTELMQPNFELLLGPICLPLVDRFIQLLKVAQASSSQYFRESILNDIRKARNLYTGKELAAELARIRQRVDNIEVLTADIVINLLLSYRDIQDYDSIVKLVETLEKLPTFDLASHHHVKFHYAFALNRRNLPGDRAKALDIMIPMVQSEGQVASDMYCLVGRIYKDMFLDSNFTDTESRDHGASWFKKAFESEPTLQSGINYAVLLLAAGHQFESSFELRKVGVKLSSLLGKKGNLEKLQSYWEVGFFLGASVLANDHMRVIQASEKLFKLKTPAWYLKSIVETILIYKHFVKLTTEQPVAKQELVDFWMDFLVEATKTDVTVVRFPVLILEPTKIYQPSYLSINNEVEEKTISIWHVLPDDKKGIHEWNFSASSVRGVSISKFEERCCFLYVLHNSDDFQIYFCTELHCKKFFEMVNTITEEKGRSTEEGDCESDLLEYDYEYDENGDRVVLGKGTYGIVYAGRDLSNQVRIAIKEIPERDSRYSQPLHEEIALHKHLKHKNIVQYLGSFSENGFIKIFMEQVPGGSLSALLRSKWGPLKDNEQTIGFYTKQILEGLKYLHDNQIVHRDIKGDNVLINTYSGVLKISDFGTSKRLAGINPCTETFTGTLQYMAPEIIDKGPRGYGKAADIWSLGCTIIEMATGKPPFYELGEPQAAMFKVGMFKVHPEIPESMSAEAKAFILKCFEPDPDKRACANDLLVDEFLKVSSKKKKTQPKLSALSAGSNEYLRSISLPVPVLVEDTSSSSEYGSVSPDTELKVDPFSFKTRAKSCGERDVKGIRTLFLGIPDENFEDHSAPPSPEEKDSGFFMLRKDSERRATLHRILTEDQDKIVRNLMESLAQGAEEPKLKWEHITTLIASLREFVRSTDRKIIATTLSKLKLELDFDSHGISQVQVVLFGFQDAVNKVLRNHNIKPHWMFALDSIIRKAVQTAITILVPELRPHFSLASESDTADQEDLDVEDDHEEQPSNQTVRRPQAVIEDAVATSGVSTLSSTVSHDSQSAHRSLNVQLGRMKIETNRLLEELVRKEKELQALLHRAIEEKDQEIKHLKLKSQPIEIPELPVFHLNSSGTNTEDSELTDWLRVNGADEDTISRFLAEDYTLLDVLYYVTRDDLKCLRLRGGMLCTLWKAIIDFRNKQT
# STLK6, sequence (Q9C0K7 whole entry): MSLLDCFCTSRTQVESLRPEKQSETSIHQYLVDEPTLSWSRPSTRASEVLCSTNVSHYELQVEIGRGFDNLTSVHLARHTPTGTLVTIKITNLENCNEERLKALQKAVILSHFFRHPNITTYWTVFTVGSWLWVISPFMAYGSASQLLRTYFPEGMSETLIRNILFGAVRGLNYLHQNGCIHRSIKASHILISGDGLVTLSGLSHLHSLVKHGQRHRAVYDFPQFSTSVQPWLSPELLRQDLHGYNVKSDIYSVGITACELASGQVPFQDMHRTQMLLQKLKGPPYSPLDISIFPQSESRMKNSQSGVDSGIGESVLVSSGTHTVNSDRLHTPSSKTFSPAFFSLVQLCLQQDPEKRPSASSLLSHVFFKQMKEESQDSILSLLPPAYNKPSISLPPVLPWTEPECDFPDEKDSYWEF
# FER, sequence (P16591 whole entry): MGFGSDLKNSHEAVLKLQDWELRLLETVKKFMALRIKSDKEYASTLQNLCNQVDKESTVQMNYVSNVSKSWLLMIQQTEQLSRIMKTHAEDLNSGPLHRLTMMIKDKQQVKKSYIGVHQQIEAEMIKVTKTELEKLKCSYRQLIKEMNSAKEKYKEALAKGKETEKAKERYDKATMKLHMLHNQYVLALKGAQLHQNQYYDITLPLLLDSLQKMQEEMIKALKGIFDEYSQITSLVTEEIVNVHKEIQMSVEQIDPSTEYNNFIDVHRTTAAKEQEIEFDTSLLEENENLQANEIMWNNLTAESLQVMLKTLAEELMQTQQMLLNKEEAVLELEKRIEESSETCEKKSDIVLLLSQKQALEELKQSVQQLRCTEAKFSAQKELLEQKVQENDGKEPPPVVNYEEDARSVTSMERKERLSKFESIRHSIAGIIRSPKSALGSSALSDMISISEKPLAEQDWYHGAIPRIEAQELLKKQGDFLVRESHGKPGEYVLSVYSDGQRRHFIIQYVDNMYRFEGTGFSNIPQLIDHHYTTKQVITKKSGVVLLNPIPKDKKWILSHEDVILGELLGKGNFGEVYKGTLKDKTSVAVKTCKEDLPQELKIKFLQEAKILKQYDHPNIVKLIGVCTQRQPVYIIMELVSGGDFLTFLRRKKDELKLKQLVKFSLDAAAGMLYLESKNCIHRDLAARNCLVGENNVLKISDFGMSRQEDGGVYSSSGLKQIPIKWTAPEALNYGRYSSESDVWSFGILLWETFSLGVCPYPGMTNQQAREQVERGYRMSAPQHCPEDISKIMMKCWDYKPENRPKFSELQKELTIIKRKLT
smiles,measurement,setting,value
"Nc1ncc(-c2ccc(NS(=O)(=O)C3CC3)cc2OC2CCCCC2)cc1-c1ccc2c(c1)CCNC2=O [Compound I-65, N-(4-(6-amino-5-(1-oxo-1,2,3,4-tetrahydroisoquinolin-6-yl)pyridin-3-yl)-3-(cyclohexyloxy)phenyl) cyclopropanesulfonamide]",IC50,STK24 (MST3),> 900 nM
same,IC50,STK4 (MST1),< 40 nM
same,inhibition at 10 µM,MST3; [2],0%
same,inhibition at 10 µM,MST3; read-out: inhibition (10 μM),31.5%
same,% inhibition,"p38d, p38g; 10 μM, range class",0.0%
same,inhibition (10 μM),"p38d, p38g",−8.5%
same,inhibition at 10 µM,RSK2 domain1; [2],75 to 90%
same,inhibition at 10 µM,RSK2 domain1; read-out: inhibition (10 μM),79.4%
same,inhibition at 10 µM,CK1g3; [2],75 to 90%
same,inhibition at 10 µM,CK1g3; read-out: inhibition (10 μM),87.2%
same,inhibition at 10 µM,p70S6K; [2],0%
same,inhibition at 10 µM,p70S6K; read-out: inhibition (10 μM),11.1%
same,inhibition at 10 µM,NEK9; [2],0%
same,inhibition at 10 µM,NEK9; read-out: inhibition (10 μM),-27.8%
same,inhibition at 10 µM,SLK; [2],> 90%
same,inhibition at 10 µM,SLK; read-out: inhibition (10 μM),97.8%
same,inhibition at 10 µM,MARK2; [2],0%
same,inhibition at 10 µM,MARK2; read-out: inhibition (10 μM),-45.1%
same,% inhibition,"MST4, YSK1; 10 μM, range class",35-40%
same,inhibition (10 μM),"MST4, YSK1",46.3%
same,inhibition at 10 µM,DGKH; [2],0%
same,inhibition at 10 µM,DGKH; read-out: inhibition (10 μM),7.3%
same,inhibition at 10 µM,MAP3K5; [2],0%
same,inhibition at 10 µM,MAP3K5; read-out: inhibition (10 μM),-12.4%
same,inhibition at 10 µM,MST2; [2],> 90%
same,inhibition at 10 µM,MST2; read-out: inhibition (10 μM),97.3%
same,inhibition at 10 µM,MSK2 domain1; [2],0%
same,inhibition at 10 µM,MSK2 domain1; read-out: inhibition (10 μM),-83.6%
same,inhibition at 10 µM,SNRK; [2],0%
same,inhibition at 10 µM,SNRK; read-out: inhibition (10 μM),1.1%
same,inhibition at 10 µM,Erk1; [2],0%
same,inhibition at 10 µM,Erk1; read-out: inhibition (10 μM),-30.7%
same,inhibition at 10 µM,RSK1 domain2; [2],0%
same,inhibition at 10 µM,RSK1 domain2; read-out: inhibition (10 μM),-0.7%
same,inhibition at 10 µM,MAP3K4; [2],0%
same,inhibition at 10 µM,MAP3K4; read-out: inhibition (10 μM),10.3%
same,inhibition at 10 µM,p70S6Kb; [2],0%
same,inhibition at 10 µM,p70S6Kb; read-out: inhibition (10 μM),32%
same,inhibition at 10 µM,BARK1; [2],0%
same,inhibition at 10 µM,BARK1; read-out: inhibition (10 μM),3.9%
same,inhibition at 10 µM,LATS1; [2],0%
same,inhibition at 10 µM,LATS1; read-out: inhibition (10 μM),33.8%
same,inhibition at 10 µM,FER; [2],50 to 75%
same,inhibition at 10 µM,FER; read-out: inhibition (10 μM),63.6%
same,% inhibition,"[1]; 10 μM, range class",0.0%
same,inhibition (10 μM),[1],12.8%
same,inhibition at 10 µM,STLK6; [2],0%
same,inhibition at 10 µM,STLK6; read-out: inhibition (10 μM),-15.9%
same,% inhibition,"TAO1, TAO3; 10 μM, range class",0.0%
same,inhibition (10 μM),"TAO1, TAO3",14.4%
same,inhibition at 10 µM,CLK2; [2],50 to 75%
same,inhibition at 10 µM,CLK2; read-out:,69.4%
same,inhibition at 10 µM,MSK1 domain1; [2],0%
same,inhibition at 10 µM,MSK1 domain1; read-out: inhibition (10 μM),-52.5%
same,% inhibition,"Wnk1, Wnk2, Wnk3; 10 μM, range class",0.0%
same,inhibition (10 μM),"Wnk1, Wnk2, Wnk3",−8.3%
"Nc1ncc(-c2cccc3ncsc23)cc1-c1ccc2c(c1)CCNC2=O [Compound I-13, 6-(2-amino-5-(benzo[d]thiazol-7-yl)pyridin-3-yl)-3,4-dihydroisoquinolin-1(2H)-one]",IC50,STK24 (MST3),> 900 nM
same,IC50,STK4 (MST1),< 40 nM
same,inhibition at 10 µM,MST3; read-out: % inhibition (range),0%
same,inhibition at 10 µM,MST3; read-out: inhibition (10 μM),-1.8%
same,% inhibition (range),"p38d, p38g; 10 μM",0.0%
same,inhibition (10 μM),"p38d, p38g",−43.7%
same,inhibition at 10 µM,RSK2 domain1; read-out: % inhibition (range),0%
same,inhibition at 10 µM,RSK2 domain1; read-out: inhibition (10 μM),19.2%
same,inhibition at 10 µM,CK1g3; read-out: % inhibition (range),> 90%
same,inhibition at 10 µM,CK1g3; read-out: inhibition (10 μM),90.4%
same,inhibition at 10 µM,p70S6K; read-out: % inhibition (range),0%
same,inhibition at 10 µM,p70S6K; read-out: inhibition (10 μM),-14.3%
same,inhibition at 10 µM,NEK9; read-out: % inhibition (range),0%
same,inhibition at 10 µM,NEK9; read-out: inhibition (10 μM),-10%
same,inhibition at 10 µM,SLK; read-out: % inhibition (range),35 to 50%
same,inhibition at 10 µM,SLK; read-out: inhibition (10 μM),49.2%
same,inhibition at 10 µM,MARK2; read-out: % inhibition (range),0%
same,inhibition at 10 µM,MARK2; read-out: inhibition (10 μM),32.3%
same,% inhibition (range),"MST4, YSK1; 10 μM",0.0%
same,inhibition (10 μM),"MST4, YSK1",−17.0%
same,inhibition at 10 µM,DGKH; read-out: % inhibition (range),0%
same,inhibition at 10 µM,DGKH; read-out: inhibition (10 μM),25.7%
same,inhibition at 10 µM,MAP3K5; read-out: % inhibition (range),0%
same,inhibition at 10 µM,MAP3K5; read-out: inhibition (10 μM),25.6%
same,inhibition at 10 µM,MST2; read-out: % inhibition (range),75 to 90%
same,inhibition at 10 µM,MST2; read-out: inhibition (10 μM),85.5%
same,inhibition at 10 µM,MSK2 domain1; read-out: % inhibition (range),0%
same,inhibition at 10 µM,MSK2 domain1; read-out: inhibition (10 μM),-6.1%
same,inhibition at 10 µM,SNRK; read-out: % inhibition (range),0%
same,inhibition at 10 µM,SNRK; read-out: inhibition (10 μM),6.2%
same,inhibition at 10 µM,Erk1; read-out: % inhibition (range),75 to 90%
same,inhibition at 10 µM,Erk1; read-out: inhibition (10 μM),75%
same,inhibition at 10 µM,RSK1 domain2; read-out: % inhibition (range),0%
same,inhibition at 10 µM,RSK1 domain2; read-out: inhibition (10 μM),-7.7%
same,inhibition at 10 µM,MAP3K4; read-out: % inhibition (range),0%
same,inhibition at 10 µM,MAP3K4; read-out: inhibition (10 μM),3%
same,inhibition at 10 µM,p70S6Kb; read-out: % inhibition (range),0%
same,inhibition at 10 µM,p70S6Kb; read-out: inhibition (10 μM),-17.4%
same,inhibition at 10 µM,BARK1; read-out: % inhibition (range),0%
same,inhibition at 10 µM,BARK1; read-out: inhibition (10 μM),21.8%
same,inhibition at 10 µM,LATS1; read-out: % inhibition (range),0%
same,inhibition at 10 µM,LATS1; read-out: inhibition (10 μM),14.7%
same,inhibition at 10 µM,FER; read-out: % inhibition (range),0%
same,inhibition at 10 µM,FER; read-out: inhibition (10 μM),4.2%
same,% inhibition (range),[1]; 10 μM,0.0%
same,inhibition (10 μM),[1],−4.1%
same,inhibition at 10 µM,STLK6; read-out: % inhibition (range),0%
same,inhibition at 10 µM,STLK6; read-out: inhibition (10 μM),-10.8%
same,% inhibition (range),"TAO1, TAO3; 10 μM",0.0%
same,inhibition (10 μM),"TAO1, TAO3",10.3%
same,inhibition at 10 µM,CLK2; read-out: % inhibition (range),0%
same,inhibition at 10 µM,CLK2; read-out:,19.1%
same,inhibition at 10 µM,MSK1 domain1; read-out: % inhibition (range),0%
same,inhibition at 10 µM,MSK1 domain1; read-out: inhibition (10 μM),9.5%
same,% inhibition (range),"Wnk1, Wnk2, Wnk3; 10 μM",0.0%
same,inhibition (10 μM),"Wnk1, Wnk2, Wnk3",−69.3%
